Data on 18 compounds can be found in patent publication US10342796B2, “Acrylanilide derivative, preparation method, and applications thereof in pharmacy” (Ancureall Pharmaceutical (Shanghai) Co., Ltd., priority 2015, dated 2019).

Common to all, as to assay: Growth inhibition GI50 in vitro (CCK8/MTT, 72 h)
What all share (assay type): cell-based, human

One experiment has as its system N87 (HER2 Amp). To be noted: Homo sapiens; Table 13, 72 h; read-out: Range of GI50 N87 (HER2 Amp).
The next experiment has as its system A549 (EGFR WT). To be noted: Homo sapiens, A549; Table 13, 72 h; read-out: Range of GI50 A549 (EGFR WT). From the text:
EGFR wild type cell lines: human epidermal cancer cell line A431 (EGFR WT, amplification and high expression, from Shanghai Cell Bank of Chinese Academy of Sciences and ATCC), NSCLC cell lines NCI-H460 (EGFR WT, Kras G61H and PI3KCA E545K mutants, ATCC) and NCI-H1299 (EGFR WT, ATCC), melanoma cell line A375 (EGFR WT and BRAF V600E mutant, from Shanghai Cell Bank of Chinese Academy of Sciences, ATCC), human lung cancer cell line NCI-H292 (EGFR WT, from human lung mucoepidermoid carcinoma/lymphatic metastasis, purchased from Shanghai Cell Bank of Chinese Academy of Sciences) were cultured with 1×RPMI1640 complete medium which was supplement with 10% FBS. NSCLC cell line A549 (EGFR WT and Kras G12S mutant, from Shanghai Cell Bank of Chinese Academy of Sciences) was cultured with 1×Ham'S F12K complete medium which was supplement with 10% FBS, 1% double-antibiotics and 2 mM glutamine.
(§1) The suspension cells were collected by centrifugation. The supernatant was discard and the cell pellet was resuspended and counted. Different cell concentrations (5˜10×10^4 cells/mL) were prepared according to the growth cycle of each cell line and then seeded on a 96-well plate (Corning), 100 μL/well. The cells were incubated over night at 37° C., 5% CO2. The compounds were added to the cells on the second day with 2 wells in parallel. The final concentration of organic solvent shall not exceed 1%. The cells were continually incubated for 72 h, and then subjected to MTT assay.
(§2) The present compounds and the reference compounds were dissolved with DMSO (Sigma), respectively. […] The storage concentration of compounds was 10 mM and kept at −20° C. They were diluted by 2 times or 10 times with serial dilution before using.
(§3) Dojindo CCK8 reagent kit was used as MTT assay. […] FC meter was used as microplate reader.
(§4) Adherent cell culture medium was discard and immediately replaced with fresh prepared medium which contains 10% CCK8 reagent (100 μL/well). For the suspension cells, CCK8 was directly added to 10% of the final concentration. The cells were continually incubated for 1˜4 h. When the color of control wells turned to dark yellow, the absorption value was measured at OD450 nm. The cell growth rate was calculated according to the following formula: cell growth rate (%)=100*(T−T0)/(C−T0), T=optical density of drug treatment cell well—optical density of blank control well; T0=optical density of cell well before drug treatment—optical density of blank control well; C=optical density of cell well of solvent control group—optical density of blank control well. […] The experiment was independently repeated 1˜3 times, and subject to biological statistical analysis.

For a further experiment, the system named is PC-9 (EGFR dE746-A750). To be noted: Homo sapiens; Table 13, 72 h; read-out: Range of GI50 PC-9 (EGFR dE746-A750). How it is done: (§5) PC-9ER is an acquired Erlotinib resistance cell line of PC-9 cells developed by the investor. […] The four cell lines above were cultured with 1×RPMI1640 complete medium (supplement with 10% FBS). Human colon cancer cell line SW48 (EGFR G719S positive, ATCC). was cultured with L15 complete medium (10% FB S).
as §1, §2, §3, §4

The next experiment concerns H1975 (EGFR L858R/T790M). To be noted: Homo sapiens, NCI-H1975; Table 13, 72 h; read-out: Range of GI50 H1975 (EGFR L858R/T790M). How it is done:
as §5, §1, §2, §3, §4

As for `C=CC(=O)Nc1cc(Nc2cc(Nc3ccc(C(F)(F)F)c(Cl)c3)ncn2)c(OC)cc1N(C)CCN(C)C` [Compound 234, N-(5-(6-(3-chloro-4-trifluoromethyl-phenylamino)-pyrimidin-4-yl-amino)-2-((2-dimethylamino-ethyl)-methyl-amino)-4-methoxyl-phenyl)-acrylamide], the GI50 in the experiment with N87 (HER2 Amp) was 10 to 100 nM; in the experiment on A549 (EGFR WT) it was greater than 1000 nM; with PC-9 (EGFR dE746-A750) it was 10 to 100 nM; in the experiment with H1975 (EGFR L858R/T790M), 10 to 100 nM.

On to `C=CC(=O)Nc1cc(Nc2cc(Nc3ccc(OC(F)(F)F)c(Cl)c3)ncn2)c(OC)cc1N(C)CCN(C)C` [Compound 235, N-(5-(6-(3-chloro-4-trifluoromethoxy-phenylamino)-pyrimidin-4-yl-amino)-2-((2-dimethylamino-ethyl)-methyl-amino)-4-methoxyl-phenyl)-acrylamide], for which the GI50 in the experiment with N87 (HER2 Amp) was 10 to 100 nM; in the experiment with A549 (EGFR WT) it was greater than 1000 nM; in the experiment on PC-9 (EGFR dE746-A750) it was 10 to 100 nM; with H1975 (EGFR L858R/T790M) it was 10 to 100 nM.

Take `C=CC(=O)Nc1cc(Nc2cc(Nc3cc(F)c(OCCOC)c(Cl)c3)ncn2)c(OC)cc1N(C)CCN(C)C` [Compound 237, N-(5-(6-(3-chloro-5-fluoro-4-(2-methoxyl-ethoxyl)-phenylamino)-pyrimidin-4-yl-amino)-2-((2-dimethylamino-ethyl)-methyl-amino)-4-methoxyl-phenyl)-acrylamide]: the GI50 with N87 (HER2 Amp) was 10 to 100 nM; in the experiment with A549 (EGFR WT) it was greater than 1000 nM; in the experiment on PC-9 (EGFR dE746-A750), 10 to 100 nM; in the experiment with H1975 (EGFR L858R/T790M), 10 to 100 nM.

On to `C=CC(=O)Nc1cc(Nc2cc(Nc3ccc(OC)c(S(=O)(=O)NC)c3)ncn2)c(OC)cc1N(C)CCN(C)C` [Compound 238], for which the GI50 is 100 to 1000 nM in the experiment with N87 (HER2 Amp), greater than 1000 nM in the experiment with A549 (EGFR WT), 100 to 1000 nM in the experiment on PC-9 (EGFR dE746-A750) and 100 to 1000 nM in the experiment with H1975 (EGFR L858R/T790M).

`C=CC(=O)Nc1cc(Nc2cc(Nc3cc(OC)c(Cl)cc3Cl)ncn2)c(OC)cc1N1CCN(C)CC1` [Compound 239, N-(5-(6-(2,4-dichloro-5-methoxyl-phenylamino)-pyrimidin-4-yl-amino)-2-(4-methyl-piperazin-1-yl)-4-methoxyl-phenyl)-acrylamide]: the GI50 with N87 (HER2 Amp) was 10 to 100 nM; in the experiment with A549 (EGFR WT) it was greater than 1000 nM; in the experiment on PC-9 (EGFR dE746-A750), less than 10 nM; with H1975 (EGFR L858R/T790M) it was 10 to 100 nM.

In the case of `C=CC(=O)Nc1cc(Nc2cc(Nc3cc(OC)c(Cl)cc3Cl)ncn2)c(OC)cc1N1CCC(N2CCOCC2)CC1` [Compound 240, N-(5-(6-(2,4-dichloro-5-methoxyl-phenylamino)-pyrimidin-4-yl-amino)-2-(4-(morpholin-1-yl)-piperidin-1-yl)-4-methoxyl-phenyl)-acrylamide], the GI50 with N87 (HER2 Amp) is less than 10 nM; in the experiment with A549 (EGFR WT), greater than 1000 nM; in the experiment on PC-9 (EGFR dE746-A750), less than 10 nM; with H1975 (EGFR L858R/T790M), 10 to 100 nM.

With `C=CC(=O)Nc1cc(Nc2cc(Nc3cc(OC)c(Cl)cc3Cl)ncn2)c(OC)cc1N(C)CC(=O)N1CCN(C)CC1` [Compound 241, N-(5-(6-(2,4-dichloro-5-methoxyl-phenylamino)-pyrimidin-4-yl-amino)-2-(methyl-(2-(4-methyl-piperazin-1-yl)-2-oxoethyl)-amino)-4-methoxyl-phenyl)-acrylamide], the GI50 in the experiment with N87 (HER2 Amp) was 100 to 1000 nM; with A549 (EGFR WT), greater than 1000 nM; in the experiment on PC-9 (EGFR dE746-A750), 100 to 1000 nM; with H1975 (EGFR L858R/T790M), 100 to 1000 nM.

As for `C=CC(=O)Nc1cc(Nc2cc(Nc3cc(OC)c(Cl)cc3Cl)ncn2)c(OC)cc1OCCN(C)C` [Compound 242, N-(5-(6-(2,4-dichloro-5-methoxyl-phenylamino)-pyrimidin-4-ylamino)-2-(2-dimethylamino-ethoxyl)-4-methoxyl-phenyl)-acrylamide], the GI50 was less than 10 nM in the experiment on N87 (HER2 Amp), greater than 1000 nM in the experiment with A549 (EGFR WT), less than 10 nM with PC-9 (EGFR dE746-A750) and less than 10 nM in the experiment with H1975 (EGFR L858R/T790M).

For the compound `C=CC(=O)Nc1cc(Nc2cc(Nc3cc(OC)c(Cl)cc3Cl)ncn2)c(OC)cc1OCCN1CCOCC1` [Compound 243], the GI50 is 10 to 100 nM in the experiment with N87 (HER2 Amp), greater than 1000 nM with A549 (EGFR WT), 10 to 100 nM with PC-9 (EGFR dE746-A750) and 10 to 100 nM with H1975 (EGFR L858R/T790M).

Regarding `C=CC(=O)Nc1cc(Nc2cc(Nc3cc(OC)c(Cl)cc3Cl)ncn2)c(OC)cc1OCCN1CCCC1` [Compound 244, N-(5-(6-(2,4-dichloro-5-methoxyl-phenylamino)-pyrimidin-4-yl-amino)-2-(2-(pyrrolidin-1-yl)-ethoxyl)-4-methoxyl-phenyl)-acrylamide], the GI50 was 10 to 100 nM in the experiment with N87 (HER2 Amp), greater than 1000 nM in the experiment on A549 (EGFR WT), 10 to 100 nM with PC-9 (EGFR dE746-A750) and 10 to 100 nM in the experiment on H1975 (EGFR L858R/T790M).

`C=CC(=O)Nc1cc(Nc2cc(Nc3cc(OC)c(Cl)cc3Cl)ncn2)c(OC)cc1OCCCN1CCCC1` [Compound 245]: the GI50 in the experiment on N87 (HER2 Amp) was 10 to 100 nM; in the experiment on A549 (EGFR WT) it was greater than 1000 nM; in the experiment on PC-9 (EGFR dE746-A750), 10 to 100 nM; in the experiment on H1975 (EGFR L858R/T790M) it was 10 to 100 nM.

As for `C=CC(=O)Nc1cc(Nc2cc(Nc3cc(OC)c(Cl)cc3Cl)ncn2)c(OC)cc1OCCN1CCCCC1` [Compound 246], the GI50 in the experiment with N87 (HER2 Amp) was 10 to 100 nM; with A549 (EGFR WT), greater than 1000 nM; with PC-9 (EGFR dE746-A750), 10 to 100 nM; with H1975 (EGFR L858R/T790M), 10 to 100 nM.

In the case of `C=CC(=O)Nc1cc(Nc2cc(Nc3cc(OC)c(Cl)cc3Cl)ncn2)c(OC)cc1OCCN1CCN(C)CC1` [Compound 247, N-(5-(6-(2,4-dichloro-5-methoxyl-phenylamino)-pyrimidin-4-yl-amino)-2-(2-(4-methyl-piperazin-1-yl)-ethoxyl)-4-methoxyl-phenyl)-acrylamide], the GI50 in the experiment with N87 (HER2 Amp) was less than 10 nM; in the experiment with A549 (EGFR WT), greater than 1000 nM; in the experiment on PC-9 (EGFR dE746-A750), less than 10 nM; in the experiment on H1975 (EGFR L858R/T790M) it was 10 to 100 nM.

For the compound `C=CC(=O)Nc1cc(Nc2cc(Nc3cc(OC)c(Cl)cc3Cl)ncn2)c(OC)cc1OCCCN1CCN(C)CC1` [Compound 248], the GI50 is less than 10 nM in the experiment on N87 (HER2 Amp), greater than 1000 nM with A549 (EGFR WT), less than 10 nM in the experiment with PC-9 (EGFR dE746-A750) and 10 to 100 nM in the experiment on H1975 (EGFR L858R/T790M).

As for `C=CC(=O)Nc1cc(Nc2cc(N(C)c3cc(OC)c(Cl)cc3Cl)ncn2)c(OC)cc1N(C)CCN(C)C` [Compound 249, N-(5-(6-((2,4-dichloro-5-methoxyl-phenyl)-methyl-amino)-pyrimidin-4-ylamino)-2-((2-dimethylamino-ethyl)-methyl-amino)-4-methoxyl-phenyl)-acrylamide], the GI50 with N87 (HER2 Amp) was less than 10 nM; with A549 (EGFR WT), greater than 1000 nM; with PC-9 (EGFR dE746-A750) it was less than 10 nM; in the experiment with H1975 (EGFR L858R/T790M), 10 to 100 nM.

As for `C=CC(=O)Nc1cc(Nc2cc(Nc3ccc(OC(C)(C)C)c(Cl)c3)ncn2)c(OC)cc1N(C)CCN(C)C` [Compound 250, N-(5-(6-(3-chloro-4-tert-butoxy-phenylamino)-pyrimidin-4-yl-amino)-2-((2-dimethylamino-ethyl)-methyl-amino)-4-methoxyl-phenyl)-acrylamide], the GI50 is less than 10 nM with N87 (HER2 Amp), greater than 1000 nM in the experiment with A549 (EGFR WT), less than 10 nM in the experiment with PC-9 (EGFR dE746-A750) and 10 to 100 nM in the experiment with H1975 (EGFR L858R/T790M).

Take `C#Cc1cc(Nc2cc(Nc3cc(NC(=O)C=C)c(N(C)CCN(C)C)cc3OC)ncn2)ccc1OC` [Compound 251, N-(5-(6-(3-acetenyl-4-methoxyl-phenylamino)-pyrimidin-4-yl-amino)-2-((2-dimethylamino-ethyl)-methyl-amino)-4-methoxyl-phenyl)-acrylamide]: the GI50 in the experiment on N87 (HER2 Amp) is less than 10 nM; with A549 (EGFR WT), greater than 1000 nM; in the experiment on PC-9 (EGFR dE746-A750), less than 10 nM; in the experiment with H1975 (EGFR L858R/T790M) it was less than 10 nM.

For `C=CC(=O)Nc1cc(Nc2cc(Nc3ccc(OCC4(C)COC4)c(Cl)c3)ncn2)c(OC)cc1N(C)CCN(C)C` [Compound 252, N-(5-(6-(3-chloro-4-(3-methyl-oxetan-3-yl-methoxyl)-phenylamino)-pyrimidin-4-yl-amino)-2-((2-dimethylamino-ethyl)-methyl-amino)-4-methoxyl-phenyl)-acrylamide], the GI50 was 10 to 100 nM in the experiment with N87 (HER2 Amp), greater than 1000 nM with A549 (EGFR WT), 10 to 100 nM in the experiment on PC-9 (EGFR dE746-A750) and 10 to 100 nM in the experiment with H1975 (EGFR L858R/T790M).
